Results on 15 compounds are retold here after patent EP4644396A1 (Visionpharma (Nantong) Co., Ltd, priority 2022, dated 2024).

Assay [1] deals with T1, human TLR7 (Homo sapiens, UniProt Q9NYK1).
T1 sequence (Q9NYK1 27-1049): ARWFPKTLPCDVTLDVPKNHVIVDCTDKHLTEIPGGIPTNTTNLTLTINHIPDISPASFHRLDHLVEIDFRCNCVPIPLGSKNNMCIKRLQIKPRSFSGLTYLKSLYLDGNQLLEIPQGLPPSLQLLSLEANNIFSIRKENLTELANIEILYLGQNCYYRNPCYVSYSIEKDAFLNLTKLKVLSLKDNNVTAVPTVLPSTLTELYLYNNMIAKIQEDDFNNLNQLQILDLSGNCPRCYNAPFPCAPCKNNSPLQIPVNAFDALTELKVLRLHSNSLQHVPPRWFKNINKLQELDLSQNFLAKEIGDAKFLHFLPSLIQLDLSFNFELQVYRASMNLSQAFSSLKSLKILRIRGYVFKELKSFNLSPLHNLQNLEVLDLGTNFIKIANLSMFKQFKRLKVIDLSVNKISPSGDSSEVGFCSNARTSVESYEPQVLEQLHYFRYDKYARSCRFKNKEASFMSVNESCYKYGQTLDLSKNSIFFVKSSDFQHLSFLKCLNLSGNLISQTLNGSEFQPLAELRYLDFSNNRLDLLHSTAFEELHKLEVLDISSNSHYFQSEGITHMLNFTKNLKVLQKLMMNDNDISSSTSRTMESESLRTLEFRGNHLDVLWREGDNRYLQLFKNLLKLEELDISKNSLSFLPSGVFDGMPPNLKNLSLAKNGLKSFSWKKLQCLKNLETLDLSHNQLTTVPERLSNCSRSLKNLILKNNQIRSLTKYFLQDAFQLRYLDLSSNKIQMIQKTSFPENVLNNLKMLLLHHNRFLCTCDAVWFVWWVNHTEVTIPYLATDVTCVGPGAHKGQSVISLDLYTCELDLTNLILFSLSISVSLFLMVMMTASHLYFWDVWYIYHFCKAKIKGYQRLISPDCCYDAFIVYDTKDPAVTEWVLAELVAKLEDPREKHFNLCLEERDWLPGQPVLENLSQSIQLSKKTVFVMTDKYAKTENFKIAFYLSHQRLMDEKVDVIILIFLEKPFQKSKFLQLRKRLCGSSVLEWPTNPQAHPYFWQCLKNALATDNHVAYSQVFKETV
Put plainly: HEK-Blue hTLR7 SEAP reporter gene inhibition assay. In kind it is cell-based. The procedure, abridged:
(§1)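 HEK-Blue cells stably expressing human TLR7 (80,000/well) or TLR8 (60,000/well) with NF-κB/AP-1–driven SEAP reporter; compounds 0.001–36 µM preincubated 15 min, then 10 µM ligand (Gardiquimod for TLR7) added for 20 h. SEAP measured by Quanti-Blue; IC50 calculated.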

Assay [2] concerns the target T2, human TLR8 (Homo sapiens, UniProt Q9NR97).
T2 construct: expressed in transfected cells
T2 sequence (Q9NR97 27-1041): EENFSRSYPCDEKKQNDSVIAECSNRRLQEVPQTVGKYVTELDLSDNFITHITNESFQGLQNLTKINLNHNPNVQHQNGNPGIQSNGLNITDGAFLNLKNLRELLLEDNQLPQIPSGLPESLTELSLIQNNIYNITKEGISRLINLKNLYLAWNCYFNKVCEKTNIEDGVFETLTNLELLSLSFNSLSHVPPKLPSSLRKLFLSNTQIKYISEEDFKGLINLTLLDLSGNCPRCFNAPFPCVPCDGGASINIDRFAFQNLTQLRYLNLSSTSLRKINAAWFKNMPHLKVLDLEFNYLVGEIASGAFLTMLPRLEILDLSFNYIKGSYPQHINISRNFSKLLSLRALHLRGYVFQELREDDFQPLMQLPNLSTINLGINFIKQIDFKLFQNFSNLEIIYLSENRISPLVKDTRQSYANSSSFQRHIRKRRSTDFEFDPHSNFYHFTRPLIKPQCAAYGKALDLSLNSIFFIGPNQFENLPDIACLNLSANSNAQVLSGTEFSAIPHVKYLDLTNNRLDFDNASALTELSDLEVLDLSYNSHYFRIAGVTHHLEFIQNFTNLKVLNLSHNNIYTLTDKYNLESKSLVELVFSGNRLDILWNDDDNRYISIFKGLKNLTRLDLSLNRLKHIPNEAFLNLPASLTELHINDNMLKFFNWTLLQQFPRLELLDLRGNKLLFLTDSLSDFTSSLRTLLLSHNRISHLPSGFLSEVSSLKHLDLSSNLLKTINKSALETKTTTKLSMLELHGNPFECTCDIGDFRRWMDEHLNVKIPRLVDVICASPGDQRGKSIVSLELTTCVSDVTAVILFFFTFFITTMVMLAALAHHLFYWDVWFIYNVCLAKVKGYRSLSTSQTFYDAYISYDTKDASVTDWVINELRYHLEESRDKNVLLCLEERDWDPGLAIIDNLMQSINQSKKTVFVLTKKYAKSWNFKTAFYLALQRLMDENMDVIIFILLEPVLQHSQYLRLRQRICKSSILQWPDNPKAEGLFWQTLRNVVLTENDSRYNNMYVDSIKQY
Put plainly: HEK-Blue hTLR8 SEAP reporter gene inhibition assay. In kind it is cell-based. The procedure, abridged: as §1

Setting [3] is: hTLR7 HEK-Blue cells, TLR7 ligand Gardiquimod 10 µM, 20 hours, SEAP by Quanti-blue, class symbols, read-out: HEK-Blue hTLR7 IC50.
The mark [4] stands for this setting: hTLR8 HEK-Blue cells, TLR8 ligand 10 µM, 20 hours, SEAP by Quanti-blue, class symbols, read-out: HEK-Blue hTLR8 IC50.

For orientation: IC50 means the concentration that inhibits the measured activity by half.

Where two headings read alike, the source gives them in different places.

For `C[C@@H]1CN(c2ccc(C#N)n3ncc(F)c23)Cc2c3c(nn21)CNC(C)(C)C3` [Example I-83, (R)-3-Fluoro-4-(4,9,9-trimethyl-3,4,7,8,9,10-hexahydropyrido[3',4':3,4]pyrazolo [1,5-a]pyrazin-2(1H)-yl)pyrazolo[1,5-a]pyridine-7-carbonitrile], the IC50 in assay [1] (setting [3]) is less than 0.05 µM; in assay [2] (setting [4]), less than 0.1 µM.
Take `COC[C@@H]1Cc2c(nn3c2CN(c2ccc(C#N)n4ncc(F)c24)C[C@H]3C)CN1` [Example I-85, 3-Fluoro-4-((4R,9S)-9-(methoxymethyl)-4-methyl-3,4,7,8,9,10-hexahydropyrido [3',4':3,4]pyrazolo[1,5-a]pyrazin-2(1H)-yl)pyrazolo[1,5-a]pyridine-7-carbonitrile]: the IC50 is more than 0.05 µM in assay [1] (setting [3]) and less than 0.1 µM in assay [2] (setting [4]).
The matching figures for `C[C@H]1NCCc2c1nn1c2CN(c2ccc(C#N)n3ncc(F)c23)C[C@H]1CF` [Example I-87, 3-Fluoro-4-((4S,7R)-4-(fluoromethyl)-7-methyl-3,4,7,8,9,10-hexahydropyrido [3',4':3,4]pyrazolo[1,5-a]pyrazin-2(1H)-yl)pyrazolo[1,5-a]pyridine-7-carbonitrile]: less than 0.05 µM and less than 0.1 µM.
`C[C@@H]1CN(c2ccc(C#N)n3ncc(F)c23)Cc2c3c(nn21)CNC(c1cnn(C)c1)C3` (stereo partly drawn) [Example I-91, 3-Fluoro-4-((4R)-4-methyl-9-(1-methyl-1H-pyrazol-4-yl)-3,4,7,8,9,10-hexahydropyrido[3',4':3,4]pyrazolo[1,5-a]pyrazin-2(1H)-yl)pyrazolo[1,5-a]pyridine-7-carbonitrile]: the IC50 was less than 0.05 µM in assay [1] (setting [3]) and less than 0.1 µM in assay [2] (setting [4]).
Take `C[C@@H]1CN(c2ccc(C#N)n3ncc(F)c23)Cc2c3c(nn21)CN1C(=O)OC[C@@H]1C3` [Example I-95, 3-Fluoro-4-((8R,12aS)-8-methyl-3-oxo-1,8,9,11,12,12a-hexahydro-3H,5H,10H-oxazolyl [3 ‴,4 ':1'6']pyridine and [3',4':3,4]pyrazole [1,5-a]pyrazine-10-yl) pyrazole [1,5-a]pyridine-7-nitrile]: the IC50 in assay [1] (HEK-Blue hTLR7 IC50 (µM)) was more than 0.05 µM; in assay [2] (HEK-Blue hTLR8 IC50 (µM)), more than 0.1 µM.
For `C[C@@H]1CN(c2ccc(C#N)n3ncc(F)c23)Cc2c3c(nn21)CN(CC(N)=O)[C@@H](C)C3` [Example I-99, 2-((4R,9S)-2-(7-cyanide-3-fluoropyridox and [1,5-a]pyridox-4-base)-4,9-dimethyl-1,2,3,4,9, 10-hydropyridox [3', 4': 3, 4]pyridoz and [1, 5]pyridoxine-8 (7H)-Base) acetylamine], the figures for the IC50 in assay [1] (setting [3]) and in assay [2] (setting [4]) were less than 0.05 µM and more than 0.1 µM, respectively.
On the same counts, the results for `C[C@@H]1CN(c2ccc(C#N)n3ncc(F)c23)Cc2c3c(nn21)CN(CC(=O)N[C@H]1CNC[C@H]1F)[C@@H](C)C3` [Example I-106, 2-((4R,9S)-2-(7-cyano-3-fluoropyrazolo[1,5-a]pyridin-4-yl)-4,9-dimethyl-1,2,3,4,9,10-hexahydropyrido[3',4':3,4]pyrazolo[1,5-a]pyrazin-8(7H)-yl)-N-((3S,4R)-4-fluoropyrrolidin-3-yl)acetamide] are less than 0.05 µM and less than 0.1 µM.
For the compound `C[C@@H]1CN(c2ccc(C#N)n3ncc(F)c23)Cc2c3c(nn21)CN(C1CC(O)C1)[C@@H](C)C3` (stereo partly drawn) [Example I-111, 3-Fluoro-4-((4R, 9S)-8-(3-hydroxycyclobutyl)-4,9-dimethyl-3,4,7,8,9, 10-hexahydropyridine [3 ', 4 ': 3, 4]pyrazole [1,5-a]pyrazine-2 (1 H) -yl) pyrazole [1,5-a] pyridine-7-nitrile], the 50% inhibitory concentration (IC50) in assay [1] (HEK-Blue hTLR7 IC50 (µM)) was less than 0.05 µM; in assay [2] (HEK-Blue hTLR8 IC50 (µM)), less than 0.1 µM.
On to `C[C@@H]1CN(c2ccc(C#N)n3ncc(F)c23)Cc2c3c(nn21)CN(CC(C)(C)O)[C@@H](C)C3` [Example I-117, 3-Fluoro-4-((4R,9S)-8-(2-hydroxy-2-methylpropyl)-4,9-dimethyl-3,4,7,8,9,10-hexahydropyrido[3',4':3,4]pyrazolo[1,5-a]pyrazin-2(1H)-yl)pyrazolo[1,5-a]pyridine-7-carbonitrile], for which the IC50 in assay [1] (setting [3]) was less than 0.05 µM; in assay [2] (setting [4]), less than 0.1 µM.
The matching figures for `C[C@@H]1CN(c2ccc(C#N)n3ncc(F)c23)Cc2c3c(nn21)CN(S(=O)(=O)CCN(C)C)[C@@H](C)C3` [Example I-118]: less than 0.05 µM and less than 0.1 µM.
Take `COCCN1Cc2nn3c(c2C[C@@H]1C)CN(c1ccc(C#N)n2ncc(F)c12)C[C@H]3C` [Example I-125, 3-Fluoro-4-((4R,9S)-8-(2-methoxyethyl)-4,9-dimethyl-3,4,7,8,9,10-hexahydropyridine [3 ', 4 ': 3, 4]pyrazole [1,5-a]pyrazine-2(1H)-yl) pyrazole[1,5-a] pyridine-7-caronitrile]: the IC50 in assay [1] (read-out: HEK-Blue hTLR7 IC50) is less than 0.05 µM; in assay [2] (read-out: HEK-Blue hTLR8 IC50), less than 0.1 µM.
Take `C[C@@H]1CN(c2ccc(C#N)n3ncc(F)c23)Cc2c3c(nn21)CN(CCC#N)[C@@H](C)C3` [Example I-129, 4-((4R,9S)-8-(2-cyanoethyl)-4,9-dimethyl-3,4,7,8,9,10-hexahydropyridine[3',4':3,4]pyrazole[1,5-a]pyrazine-2 (1 H)-yl)-3-fluoropyrazole [1,5-a] pyridine-7-nitrile]: the IC50 in assay [1] (HEK-Blue hTLR7 IC50 (µM)) is less than 0.05 µM; in assay [2] (HEK-Blue hTLR8 IC50 (µM)) it was less than 0.1 µM.
For `C[C@@H]1CN(c2ccc(C#N)c3ncccc23)Cc2c3c(nn21)CN[C@@H](C)C3` [Example I-132, 5-((4R,9S)-4,9-dimethyl-3,4,7,8,9,10-hexahydropyrido[3',4':3,4]pyrazolo[1,5-a]pyrazin-2(1H)-yl)quinoline-8-carbonitrile], the IC50 in assay [1] (setting [3]) is less than 0.05 µM; in assay [2] (setting [4]) it was less than 0.1 µM.
Turning to `C[C@@H]1CN(c2ccc(C#N)n3ncc(F)c23)Cc2c3c(nn21)CN(Cc1ccn[nH]1)[C@@H](C)C3` [Example I-134, 4-((4R,9S)-8-((1H-pyrazol-5-yl)methyl)-4,9-dimethyl-3,4,7,8,9,10-hexahydropyrido[3',4':3,4]pyrazolo[1,5-a]pyrazin-2(1H)-yl)-3-fluoropyrazolo[1,5-a]pyridine-7-carbonitrile], the values for the IC50 in assay [1] (read-out: HEK-Blue hTLR7 IC50) and in assay [2] (read-out: HEK-Blue hTLR8 IC50) were less than 0.05 µM and less than 0.1 µM, respectively.
For the compound `C[C@@H]1CN(c2ccc(C#N)n3ncc(F)c23)Cc2c3c(nn21)CN(C1CC2(COC2)C1)[C@@H](C)C3` [Example I-135], the IC50 was less than 0.05 µM in assay [1] (HEK-Blue hTLR7 IC50 (µM)) and less than 0.1 µM in assay [2] (HEK-Blue hTLR8 IC50 (µM)).
